Patent US20120142705A1, “ISATIN AND OXINDOLE COMPOUNDS” (priority 2010, published 2012)

target: T1, Recombinant human liver GK1 (GST-GK) (Homo sapiens, UniProt P35557); experiment: In vitro glucokinase activity, G6PDH-coupled spectrophotometric assay; type: biochemical; conditions: 5 mM D-glucose, 30° C., pH 7.1
T1 construct: made in house; host or cells: E. coli
T1 sequence (P35557 1-466 isoform P35557-2): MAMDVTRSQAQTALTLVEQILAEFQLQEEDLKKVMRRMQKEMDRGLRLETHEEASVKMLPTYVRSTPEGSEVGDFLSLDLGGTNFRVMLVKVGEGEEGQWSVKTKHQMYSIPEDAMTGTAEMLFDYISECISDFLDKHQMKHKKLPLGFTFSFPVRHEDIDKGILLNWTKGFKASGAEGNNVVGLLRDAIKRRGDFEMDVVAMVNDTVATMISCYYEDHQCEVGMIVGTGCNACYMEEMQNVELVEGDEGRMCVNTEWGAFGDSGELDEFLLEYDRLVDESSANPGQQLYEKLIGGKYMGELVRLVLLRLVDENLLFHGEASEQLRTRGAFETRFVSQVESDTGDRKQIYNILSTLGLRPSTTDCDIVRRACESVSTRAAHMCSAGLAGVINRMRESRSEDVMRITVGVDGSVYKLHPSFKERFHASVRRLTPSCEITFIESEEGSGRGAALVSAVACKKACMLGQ
Outline: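 GST-fused human liver GK1 from E. coli, run at 30° C. in pH 7.1 HEPES with 5 mM glucose, 1 mM ATP and 10% DMSO, coupled via G6PDH to NADH. OD340 rate measured after enzyme start; SC1.5 is the activator concentration raising activity 50% over DMSO control.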

Question: `Cc1ccc2c(c1)N(C(CC1CCCC1)C(=O)Nc1nccs1)C(=O)C2` (stereo not drawn) [Example 129, 3-Cyclopentyl-2-(6-methyl-2-oxo-2,3-dihydro-indol-1-yl)-N-thiazol-2-yl-propionamide] was tested. Which “SC1.5 (concentration of activator that produced a 50% increase in the activity of GK)” value did it give?
Answer: Its value is 0.53 µM.

Question: With `O=C1C(=O)N(C(CC2CCCC2)C(=O)Nc2nccs2)c2ccc(Cl)cc21` (stereo not drawn) [Example 92, 2-(5-Chloro-2,3-dioxo-2,3-dihydro-indol-1-yl)-3-cyclopentyl-N-thiazol-2-yl-propionamide] as the molecule, how does the “SC1.5 (concentration of activator that produced a 50% increase in the activity of GK)” value read?
Answer: Its value is 3.01 µM.

Question: How did the “SC1.5 (concentration of activator that produced a 50% increase in the activity of GK)” value turn out when `Cn1ccc(NC(=O)C(CC2CCCC2)N2C(=O)Cc3ccc(F)cc32)n1` (stereo not drawn) [Example 126, 3-Cyclopentyl-2-(6-fluoro-2-oxo-2,3-dihydro-indol-1-yl)-N-(1-methyl-1H-pyrazol-3-yl)-propionamide] was run?
Answer: Its value is 1.86 µM.

Question: For `CC(C)CC(C(=O)Nc1cnccn1)N1C(=O)C(=O)c2cc(OC(F)(F)F)ccc21` (stereo not drawn) [Example 37, 2-(2,3-Dioxo-5-trifluoromethoxy-2,3-dihydro-indol-1-yl)-4-methyl-pentanoic acid pyrazin-2-ylamide], which “SC1.5 (concentration of activator that produced a 50% increase in the activity of GK)” value is on record?
Answer: Its value is 19.72 µM.

Question: Which “SC1.5 (concentration of activator that produced a 50% increase in the activity of GK)” value does the source give for `CC(C)CC(C(=O)Nc1ccccn1)N1C(=O)C(=O)c2cc(OC(F)(F)F)ccc21` (stereo not drawn) [Example 38, 2-(2,3-Dioxo-5-trifluoromethoxy-2,3-dihydro-indol-1-yl)-4-methyl-pentanoic acid pyridin-2-ylamide] here?
Answer: Its value is 2.57 µM.

Question: For `O=C1C(=O)N(C(CC2CCCC2)C(=O)Nc2cnccn2)c2ccccc21` (stereo not drawn) [Example 1, 3-Cyclopentyl-2-(2,3-dioxo-2,3-dihydro-indol-1-yl)-N-pyrazin-2-yl-propionamide], which “SC1.5 (concentration of activator that produced a 50% increase in the activity of GK)” value is on record?
Answer: Its value is 18.64 µM.

Question: For `O=C1C(=O)N(C(CC2CCCC2)C(=O)Nc2cnccn2)c2cccc(Cl)c21` (stereo not drawn) [Example 13, 2-(4-Chloro-2,3-dioxo-2,3-dihydro-indol-1-yl)-3-cyclopentyl-N-pyrazin-2-yl-propionamide], which “SC1.5 (concentration of activator that produced a 50% increase in the activity of GK)” value is on record?
Answer: The value was 6.94 µM.

Question: How did the “SC1.5 (concentration of activator that produced a 50% increase in the activity of GK)” value turn out when `CC(C)CC(C(=O)Nc1nccs1)N1C(=O)Cc2cc(Br)ccc21` (stereo not drawn) [Example 72, 2-(5-Bromo-2-oxo-2,3-dihydro-indol-1-yl)-4-methyl-pentanoic acid thiazol-2-ylamide] was run?
Answer: The value was 5.82 µM.

Question: How did the “SC1.5 (concentration of activator that produced a 50% increase in the activity of GK)” value turn out when `Cc1ccc2c(c1)C(=O)C(=O)N2C(CC1CCCC1)C(=O)Nc1cnccn1` (stereo not drawn) [Example 76, 3-Cyclopentyl-2-(5-methyl-2,3-dioxo-2,3-dihydro-indol-1-yl)-N-pyrazin-2-yl-propionamide] was run?
Answer: The value was 22.77 µM.

Question: With `COc1ccc2c(c1)C(=O)C(=O)N2C(CC1CCCC1)C(=O)Nc1ccccn1` (stereo not drawn) [Example 46, 3-Cyclopentyl-2-(5-methoxy-2,3-dioxo-2,3-dihydro-indol-1-yl)-N-pyridin-2-yl-propionamide] as the molecule, how does the “SC1.5 (concentration of activator that produced a 50% increase in the activity of GK)” value read?
Answer: The value was 2.32 µM.

Question: `CC(C)CC(C(=O)Nc1ccn(C)n1)N1C(=O)C(=O)c2cc(OC(F)(F)F)ccc21` (stereo not drawn) [Example 39, 2-(2,3-Dioxo-5-trifluoromethoxy-2,3-dihydro-indol-1-yl)-4-methyl-pentanoic acid (1-methyl-1H-pyrazol-3-yl)-amide] was tested. Which “SC1.5 (concentration of activator that produced a 50% increase in the activity of GK)” value did it give?
Answer: The value was 21.28 µM.

Question: For `COc1ccc2c(c1)CC(=O)N2C(CC1CCCC1)C(=O)Nc1ccccn1` (stereo not drawn) [Example 49, 3-Cyclopentyl-2-(5-methoxy-2-oxo-2,3-dihydro-indol-1-yl)-N-pyridin-2-yl-propionamide], which “SC1.5 (concentration of activator that produced a 50% increase in the activity of GK)” value is on record?
Answer: Its value is 1.74 µM.

Question: `Cn1ccc(NC(=O)C(CC2CCCC2)N2C(=O)Cc3cc(OC(F)(F)F)ccc32)n1` (stereo not drawn) [Example 34, 3-Cyclopentyl-N-(1-methyl-1H-pyrazol-3-yl)-2-(2-oxo-5-trifluoromethoxy-2,3-dihydro-indol-1-yl)-propionamide] was tested. Which “SC1.5 (concentration of activator that produced a 50% increase in the activity of GK)” value did it give?
Answer: Its value is 1.07 µM.

Question: For `CC(C)CC(C(=O)Nc1cnccn1)N1C(=O)Cc2cc(OC(F)(F)F)ccc21` (stereo not drawn) [Example 44, 4-Methyl-2-(2-oxo-5-trifluoromethoxy-2,3-dihydro-indol-1-yl)-pentanoic acid pyrazin-2-ylamide], which “SC1.5 (concentration of activator that produced a 50% increase in the activity of GK)” value is on record?
Answer: Its value is 3.67 µM.

Question: `O=C(Nc1ccccn1)C(CC1CCCC1)N1C(=O)Cc2cc(Br)ccc21` (stereo not drawn) [Example 64, 2-(5-Bromo-2-oxo-2,3-dihydro-indol-1-yl)-3-cyclopentyl-N-pyridin-2-yl-propionamide] was tested. Which “SC1.5 (concentration of activator that produced a 50% increase in the activity of GK)” value did it give?
Answer: The value was 0.48 µM.

Question: Which “SC1.5 (concentration of activator that produced a 50% increase in the activity of GK)” value does the source give for `CC(C)CC(C(=O)Nc1cnccn1)N1C(=O)Cc2c(Cl)cccc21` (stereo not drawn) [Example 25, 2-(4-Chloro-2-oxo-2,3-dihydro-indol-1-yl)-4-methyl-pentanoic acid pyrazin-2-ylamide] here?
Answer: The value was 16.78 µM.

Question: `O=C(Nc1nccs1)C(CC1CCCC1)N1C(=O)Cc2c(Cl)cccc21` (stereo not drawn) [Example 22, 2-(4-Chloro-2-oxo-2,3-dihydro-indol-1-yl)-3-cyclopentyl-N-thiazol-2-yl-propionamide] was tested. Which “SC1.5 (concentration of activator that produced a 50% increase in the activity of GK)” value did it give?
Answer: The value was 1.98 µM.

Question: Which “SC1.5 (concentration of activator that produced a 50% increase in the activity of GK)” value does the source give for `COc1ccc2c(c1)C(=O)C(=O)N2C(CC1CCCC1)C(=O)Nc1cnccn1` (stereo not drawn) [Example 45, 3-Cyclopentyl-2-(5-methoxy-2,3-dioxo-2,3-dihydro-indol-1-yl)-N-pyrazin-2-yl-propionamide] here?
Answer: Its value is 12.29 µM.

Question: Which “SC1.5 (concentration of activator that produced a 50% increase in the activity of GK)” value does the source give for `CS(=O)(=O)c1ccc2c(c1)N(C(CC1CCCC1)C(=O)Nc1nccs1)C(=O)C2` (stereo not drawn) [Example 138, 3-Cyclopentyl-2-(6-methanesulfonyl-2-oxo-2,3-dihydro-indol-1-yl)-N-thiazol-2-yl-propionamide] here?
Answer: Its value is 2.94 µM.

Question: With `Cc1ccc2c(c1)CC(=O)N2C(CC1CCCC1)C(=O)Nc1ccccn1` (stereo not drawn) [Example 80, 3-Cyclopentyl-2-(5-methyl-2-oxo-2,3-dihydro-indol-1-yl)-N-pyridin-2-yl-propionamide] as the molecule, how does the “SC1.5 (concentration of activator that produced a 50% increase in the activity of GK)” value read?
Answer: The value was 3.83 µM.

Question: For `CC(C)CC(C(=O)Nc1cnccn1)N1C(=O)Cc2ccc(Cl)cc21` (stereo not drawn) [Example 113, 2-(6-Chloro-2-oxo-2,3-dihydro-indol-1-yl)-4-methyl-pentanoic acid pyrazin-2-ylamide], which “SC1.5 (concentration of activator that produced a 50% increase in the activity of GK)” value is on record?
Answer: Its value is 2.64 µM.

Question: How did the “SC1.5 (concentration of activator that produced a 50% increase in the activity of GK)” value turn out when `CC(C)CC(C(=O)Nc1nccs1)N1C(=O)Cc2cc(OC(F)(F)F)ccc21` (stereo not drawn) [Example 41, 4-Methyl-2-(2-oxo-5-trifluoromethoxy-2,3-dihydro-indol-1-yl)-pentanoic acid thiazol-2-ylamide] was run?
Answer: Its value is 2.81 µM.

Question: Which “SC1.5 (concentration of activator that produced a 50% increase in the activity of GK)” value does the source give for `O=C1C(=O)N(C(CC2CCCC2)C(=O)Nc2ccccn2)c2ccc(Cl)cc21` (stereo not drawn) [Example 94, 2-(5-Chloro-2,3-dioxo-2,3-dihydro-indol-1-yl)-3-cyclopentyl-N-pyridin-2-yl-propionamide] here?
Answer: The value was 1.04 µM.

Question: For `CC(C)CC(C(=O)Nc1ccccn1)N1C(=O)C(=O)c2cc(Br)ccc21` (stereo not drawn) [Example 69, 2-(5-Bromo-2,3-dioxo-2,3-dihydro-indol-1-yl)-4-methyl-pentanoic acid pyridin-2-ylamide], which “SC1.5 (concentration of activator that produced a 50% increase in the activity of GK)” value is on record?
Answer: Its value is 7.43 µM.

Question: `N#Cc1ccc2c(c1)N(C(CC1CCCC1)C(=O)Nc1ccccn1)C(=O)C2` (stereo not drawn) [Example 137, 2-(6-Cyano-2-oxo-2,3-dihydro-indol-1-yl)-3-cyclopentyl-N-pyridin-2-yl-propionamide] was tested. Which “SC1.5 (concentration of activator that produced a 50% increase in the activity of GK)” value did it give?
Answer: The value was 1.91 µM.

Question: How did the “SC1.5 (concentration of activator that produced a 50% increase in the activity of GK)” value turn out when `O=C(Nc1nccs1)C(CC1CCCC1)N1C(=O)Cc2cc(Br)ccc21` (stereo not drawn) [Example 66, 2-(5-Bromo-2-oxo-2,3-dihydro-indol-1-yl)-3-cyclopentyl-N-thiazol-2-yl-propionamide] was run?
Answer: Its value is 1.69 µM.

same assay, conditions: @ 30 uM; 5 mM D-glucose, 30° C.

Question: Which fold induction at 30 µM does the source give for `Cn1ccc(NC(=O)C(CC2CCCC2)N2C(=O)C(=O)c3ccccc32)n1` (stereo not drawn) [Example 5, 3-Cyclopentyl-2-(2,3-dioxo-2,3-dihydro-indol-1-yl)-N-(1-methyl-1H-pyrazol-3-yl)-propionamide] here?
Answer: Its fold induction at 30 µM is 1.47.

Question: Which fold induction at 30 µM does the source give for `CC(C)CC(C(=O)Nc1ccn(C)n1)N1C(=O)C(=O)c2c(Cl)cccc21` (stereo not drawn) [Example 19, 2-(4-Chloro-2,3-dioxo-2,3-dihydro-indol-1-yl)-4-methyl-pentanoic acid (1-methyl-1H-pyrazol-3-yl)-amide] here?
Answer: Its fold induction at 30 µM is 1.24.

Question: `CC(C)CC(C(=O)Nc1cnccn1)N1C(=O)C(=O)c2cc(Br)ccc21` (stereo not drawn) [Example 68, 2-(5-Bromo-2,3-dioxo-2,3-dihydro-indol-1-yl)-4-methyl-pentanoic acid pyrazin-2-ylamide] was tested. Which fold induction at 30 µM did it give?
Answer: Its fold induction at 30 µM is 1.32.

Question: `Cc1ccc2c(c1)C(=O)C(=O)N2C(CC(C)C)C(=O)Nc1ccccn1` (stereo not drawn) [Example 85, 4-Methyl-2-(5-methyl-2,3-dioxo-2,3-dihydro-indol-1-yl)-pentanoic acid pyridin-2-ylamide] was tested. Which fold induction at 30 µM did it give?
Answer: Its fold induction at 30 µM is 1.16.
